BindingDB's records for PubMed 8226867 (Synaptic Pharmaceutical, 1993)
pKi: −log10 of the molar value.

biological target: 5-hydroxytryptamine receptor 4 (Mus musculus, UniProt P97288)
Sequence (P97288 whole entry): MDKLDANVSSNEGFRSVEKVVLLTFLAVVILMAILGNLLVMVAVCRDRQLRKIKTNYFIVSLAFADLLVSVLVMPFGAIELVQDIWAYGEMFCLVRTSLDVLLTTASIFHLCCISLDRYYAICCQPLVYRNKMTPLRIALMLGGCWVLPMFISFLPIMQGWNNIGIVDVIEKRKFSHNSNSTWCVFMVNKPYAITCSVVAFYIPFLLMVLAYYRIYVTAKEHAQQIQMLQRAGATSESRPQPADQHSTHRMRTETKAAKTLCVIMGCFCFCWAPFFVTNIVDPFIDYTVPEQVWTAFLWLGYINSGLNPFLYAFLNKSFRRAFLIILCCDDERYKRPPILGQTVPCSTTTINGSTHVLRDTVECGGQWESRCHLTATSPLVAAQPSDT

Compound `NCCc1c[nH]c2ccccc12` [1H-indole-3-ethanamine] has a pKi of less than 5.00.

biological target: 5-hydroxytryptamine receptor 4 (Rattus norvegicus, UniProt Q62758)
Sequence (Q62758 whole entry): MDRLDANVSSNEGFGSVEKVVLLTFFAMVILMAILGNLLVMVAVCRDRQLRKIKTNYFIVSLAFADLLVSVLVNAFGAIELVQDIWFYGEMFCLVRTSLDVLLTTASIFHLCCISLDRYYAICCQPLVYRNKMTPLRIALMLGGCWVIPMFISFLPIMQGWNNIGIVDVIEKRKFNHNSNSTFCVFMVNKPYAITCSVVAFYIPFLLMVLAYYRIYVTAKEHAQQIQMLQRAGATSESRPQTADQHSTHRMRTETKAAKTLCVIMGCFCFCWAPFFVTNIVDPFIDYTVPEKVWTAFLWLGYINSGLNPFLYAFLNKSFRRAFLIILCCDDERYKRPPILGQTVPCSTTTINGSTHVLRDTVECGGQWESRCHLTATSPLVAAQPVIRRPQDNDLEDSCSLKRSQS

`COc1cc(N)c(Cl)cc1C(=O)NC1CN2CCC1CC2` (stereo unspecified) [ZACOPRIDE,R] and `COc1ccc2[nH]cc(CCN)c2c1` [tryptamine, 5-Methoxy] are the same in pKi: 6.50 for the first, 6.50 for the second.

biological target: 5-hydroxytryptamine receptor 6 (Homo sapiens, UniProt P50406)
Sequence (P50406 whole entry): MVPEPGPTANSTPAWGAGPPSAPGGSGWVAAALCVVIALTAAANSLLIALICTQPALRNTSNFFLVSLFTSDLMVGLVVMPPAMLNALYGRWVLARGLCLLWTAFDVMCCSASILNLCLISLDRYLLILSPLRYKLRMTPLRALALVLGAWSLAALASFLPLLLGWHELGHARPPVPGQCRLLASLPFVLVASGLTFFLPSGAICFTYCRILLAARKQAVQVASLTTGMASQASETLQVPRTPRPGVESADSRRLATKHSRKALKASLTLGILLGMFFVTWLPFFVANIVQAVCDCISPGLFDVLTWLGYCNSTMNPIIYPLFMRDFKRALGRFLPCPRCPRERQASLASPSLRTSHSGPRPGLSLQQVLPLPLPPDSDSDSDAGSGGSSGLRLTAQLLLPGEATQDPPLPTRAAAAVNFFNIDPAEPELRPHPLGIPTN

Compared with `Cc1nc2sccn2c(=O)c1CCN1CCC(=C(c2ccc(F)cc2)c2ccc(F)cc2)CC1`, `c1ccc2c(N3CCNCC3)cccc2c1` is 0.82 log units lower in pKi: 7.80 for the first, 6.98 for the second.

First: CC[C@@H](CO)NC(=O)[C@@H]1C=C2c3cccc4c3c(cn4C)C[C@H]2N(C)C1
Second: CCN(CC)C(=O)[C@@H]1C=C2c3cccc4[nH]c(Br)c(c34)C[C@H]2N(C)C1 [LSD,2-Bromo]
The pKi of the first is 1.34 log units lower: 6.43 for the first, 7.77 for the second.

First: CN1CC(C(=O)N[C@]2(C)O[C@@]3(O)C4CCCN4C(=O)[C@H](Cc4ccccc4)N3C2=O)CC2c3cccc4[nH]cc(c34)CC21 (stereo partly drawn) [7-Methyl-4,6,6a,7,8,9,10,10a-octahydro-indolo[4,3-fg]quinoline-9-carboxylic acid ((2R,5S,10bS)-5-benzyl-10b-hydroxy-2-methyl-3,6-dioxo-octahydro-oxazolo[3,2-a]pyrrolo[2,1-c]pyrazin-2-yl)-amide]
Second: CN1C[C@H](CNC(=O)OCc2ccccc2)C[C@@H]2c3cccc4c3c(cn4C)C[C@H]21 [METERGOLINE]
The pKi of the first is 1.06 log units higher: 8.27 for the first, 7.21 for the second.

First: CN1C[C@@H](NS(=O)(=O)N(C)C)C[C@@H]2c3cccc4c3c(cn4C)C[C@H]21 [MESULERGINE]
Second: NCCc1c[nH]c2ccc(C(N)=O)cc12 [[3H]-5-carboxamidotryptamine]
The pKi of the first is 0.84 log units lower: 5.76 for the first, 6.60 for the second. The second binds more tightly here.
